These are literature values, as cited in patent US7083803B2, “Ocular solutions” (Advanced Ocular Systems Limited, priority 2003, dated 2006).

Data set [1] deals with atopic dermatitis.
For data set [2] the following is noted: administered systemically.

Turning to `C=CC[C@@H]1/C=C(\C)C[C@H](C)C[C@H](OC)[C@H]2O[C@@](O)(C(=O)C(=O)N3CCCC[C@H]3C(=O)O[C@H](/C(C)=C/[C@@H]3CC[C@@H](O)[C@H](OC)C3)[C@H](C)[C@@H](O)CC1=O)[C@H](C)C[C@@H]2OC` [Tacrolimus, tacrolimus], where the note is “chloroform”, the solubility in chloroform entry is on record as “very soluble”. For the same molecule, the solubility in ethanol result (ethanol) is given as “freely soluble”. For the same molecule, the solubility in methanol result (methanol) is “very soluble”. In addition, under “water”, the solubility in water entry is recorded as “practically insoluble”. Moreover, the local tolerability entry in data set [1] (topical administration) is listed as “well tolerated locally”. The “adverse effects, treated versus control groups” value in data set [1] (topical administration for dermatoses at concentrations up to 0.3%) was “no significant difference”. Also, the “clinical improvement in atopic dermatitis” value in data set [1] (topical administration, doses 0.03%–0.3%, after 2–3 weeks treatment) was “significant clinical improvement”. For the same molecule, in data set [2], the “renal and hepatic toxicity” value was “significant renal and hepatic toxicity”.
